Experimental findings from patent US9611230B2, “1,3,4-oxadiazole benzoic acid compounds and their use for nonsense suppression and the treatment of disease” (PTC Therapeutics, Inc., priority 2004, dated 2017) are described below.

Each structure is given as a SMILES string. Several values for one entry are separate records, joined by “and”; a condition that tells them apart may be missing. Equal entries are not always repeated.

The test system of data set [1] is full-length luciferase protein produced by suppression of the premature termination codon. Briefly: Western blot of full-length luciferase after immunoprecipitation (epitope-tagged nonsense constructs). Type of data set: cell-based, Human. Conditions: printed in the UAAA column of Table 3. The source says:
The nonsense suppression activity in an assay as described above is shown in the Table 3 below, for a construct with a UAG nonsense mutation at position 190, followed by an adenine nucleotide in-frame, (UAGA); and a construct with a UAA nonsense mutation at position 190, followed by an adenine nucleotide in-frame, (UAAA).
Another assay of the present invention can evaluate compounds that promote nonsense mutation suppression. The luciferase constructs described above in FIG. 1 are engineered to harbor two epitope tags in the N-terminus of the luciferase protein. Based on luciferase protein production, these constructs qualitatively assess the level of translation-readthrough. The presence of the full-length luciferase protein produced by suppression of the premature termination codon is measured by immunoprecipitation of the suppressed luciferase protein (using an antibody against a His tag) followed by western blotting using an antibody against the second epitope (the Xpress™ epitope; Invitrogen®; Carlsbad, Calif.). These constructs are depicted in FIG. 2.
Cells that harbor the constructs of FIG. 2 show increased full-length protein production when treated with a compound of the present invention. After treatment for 20 hours, cells containing the constructs of FIG. 2 are collected and an antibody recognizing the His epitope is used to immunoprecipitate the luciferase protein. Following immunoprecipitation, western blotting is performed using the antibody to the Xpress™ epitope (Invitrogen®; Carlsbad, Calif.) to detect the truncated luciferase (produced when no nonsense suppression occurs) and to detect the full-length protein (produced by suppression of the nonsense codon). Treatment of cells with a test compound produces full-length protein and not a readthrough protein (See e.g. FIG. 3). The readthrough protein is produced if suppression of the normal termination codon occurs. Compounds of the present invention suppress the premature, i.e. nonsense mutation, but not the normal termination codon in the luciferase mRNA.
Background: A western blot detects proteins with antibodies after separation by electrophoresis.

A word on the melting point: it is the temperature, or range, at which the solid turns liquid. In the case of `O=C(O)c1ccc(-c2ncc(-c3ccc(F)cc3F)o2)cc1` [Compound No. 548, 4-[5-(2,4-difluorophenyl)oxazol-2-yl]benzoic acid], the melting point was 298 to 299 °C and 301 to 302 °C. In addition, the “western blot signal (POS WB)” value in data set [1] was “POSWB”.
The molecule `CCOc1ccc(-c2cnc(-c3cccc(C(=O)O)c3)o2)cc1` [Compound 595] came in with a melting point of 223 to 224 °C. Moreover, in data set [1], the “western blot signal (POS WB)” value was “POSWB”.
The molecule `O=C(O)c1cccc(-c2cc(-c3ccc(Cl)cc3)on2)c1` [Compound No. 479, 3-[5-(4-chlorophenyl)isoxazol-3-yl]benzoic acid] registered a melting point of 293 to 295 °C. Further, the “western blot signal (POS WB)” value in data set [1] is on record as “POSWB”.
